Experimental data published in PubChem BioAssay (NCI).
Values joined by “and” are separate entries in the source; they are usually repeats but may differ in a detail not shown here. Equal values may be shown once.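 Tested at 5 concentrations; 48 h exposure; 96-well plates; endpoints linearly interpolated, else capped at highest concentration. GI50: concentration for 50% inhibition of growth. At the TGI there is no net growth.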

Experiments:
Test in all cases: DTP human tumour cell line panel, 48 h
[1] = system: COLO 205 colon
[2] = system: DMS 114 small cell lung
[3] = system: IGROV1 ovarian
[4] = system: MALME-3M melanoma
[5] = system: NCI-H226 lung
[6] = system: SK-OV-3 ovarian
[7] = system: SNB-19 CNS
[8] = system: SNB-78 CNS
[9] = system: UACC-257 melanoma
[10] = system: PC-3 prostate

| SMILES | TGI [1] | TGI [2] | TGI [3] | TGI [4] | TGI [5] | TGI [6] | TGI [7] | TGI [8] | TGI [9] | TGI [10] | GI50 [1] | GI50 [3] | GI50 [4] | GI50 [5] | GI50 [10] | GI50 [6] | GI50 [7] | GI50 [9] |
| --- | --- | --- | --- | --- | --- | --- | --- | --- | --- | --- | --- | --- | --- | --- | --- | --- | --- | --- |
| Cc1c(C(=O)CC(=O)C(=O)Nc2cc(Cl)ccc2Cl)[n+](=O)c2ccccc2n1[O-] | 69.6 µM | 61.3 µM | > 100 µM | > 100 µM | > 100 µM | > 100 µM | > 100 µM | > 100 µM | > 100 µM |  |  |  |  |  |  |  |  |  |
| S=P(N1CCCC1)(N1CC1)N1CC1 | > 100 µM | > 100 µM | > 100 µM | > 100 µM | > 100 µM | > 100 µM | > 100 µM | > 100 µM | > 100 µM |  |  |  |  |  |  |  |  |  |
| Cc1c(Cl)cccc1NC(=O)/C(Cl)=C(\Cl)C(=O)O | 21.6 µM | 36.5 µM | 35.7 µM | 32.2 µM | 51.3 µM | 33.3 µM | > 100 µM | 44.7 µM | 36.7 µM |  |  |  |  |  |  |  |  |  |
| COc1cc(C2c3cc4c(cc3[C@@H](OCCN(C)C)C3COC(=O)[C@H]23)OCO4)cc(OC)c1O (stereo not given in full) | 16 µM |  | 4.97 µM | 1.87 µM | 0.288 µM | 1.6 µM | > 22.3 µM | > 100 µM | 8.25 µM |  |  |  |  |  |  |  |  |  |
| CCOC(=O)c1c(-c2ccccc2)c(C(OC(c2ccccc2)c2c(-c3ccccc3)c(C(=O)OCC)n3ccccc23)c2ccccc2)c2ccccn12 (stereo not given) | > 100 µM |  | > 100 µM | > 100 µM | > 100 µM | > 100 µM | > 100 µM | > 100 µM | > 100 µM |  |  |  |  |  |  |  |  |  |
| COC(=O)c1ccc(C(=O)OC)c2nc3cc(C)ccc3nc12 | > 100 µM | > 100 µM | > 100 µM | > 100 µM | > 100 µM | > 100 µM | > 100 µM | > 100 µM | > 100 µM |  |  |  |  |  |  |  |  |  |
| CS(=O)(=O)NNS(=O)(=O)c1ccc(Cl)cc1 | > 100 µM | > 100 µM | > 100 µM | > 100 µM | 96.3 µM |  | > 100 µM |  | > 100 µM |  |  |  |  |  |  |  |  |  |
| COc1ccc2ccccc2c1CN1CCOCCOCCN(Cc2c(OC)ccc3ccccc23)CCOCCOCC1 | > 100 µM | > 100 µM | > 100 µM | > 63.9 µM | > 100 µM | > 100 µM | > 100 µM | > 100 µM | 65.5 µM |  |  |  |  |  |  |  |  |  |
| CC1(O)CCC2(C)C(=O)C1(C)CCC21OCCO1 (stereo not given) | > 100 µM | > 100 µM | > 100 µM | > 100 µM | > 100 µM | > 100 µM | > 100 µM |  | > 100 µM |  |  |  |  |  |  |  |  |  |
| CCn1c(=O)c2c3ccc(OC(C)=O)cc3[nH]c2c2ccc(OC(C)=O)cc21 | > 100 µM |  | > 100 µM | > 100 µM | > 100 µM | > 100 µM | > 100 µM |  | > 100 µM | > 100 µM |  |  |  |  |  |  |  |  |
| CC(=O)c1cc(-c2ccccc2N)n(-c2ccc3c(c2)OCO3)c1C | 1.32 µM |  | > 100 µM | > 83.3 µM | 6.86 µM | 45.3 µM | > 100 µM |  | > 100 µM | > 100 µM | 0.328 µM | 0.529 µM | 2.88 µM | 0.239 µM | 0.317 µM | 0.292 µM | 0.299 µM | 27.3 µM |
| CC1=NOC(=O)C1N=Nc1ccc(Br)c(C)c1 (stereo not given) | 52.9 µM | 29.3 µM | 39.4 µM | 33.3 µM | 53.4 µM | 97.8 µM | 92.8 µM | 62.8 µM | 35.4 µM |  |  |  |  |  |  |  |  |  |
| COC(=O)c1ccc2c(c1)C(=O)c1c-2n(CCCN)c(=O)c2cc(OC)c(OC)cc12 | 27.7 µM |  | 29.2 µM | 45.7 µM | 36.7 µM | 49.4 µM | 42.6 µM |  | > 41.5 µM | > 51.4 µM | 12.4 µM | 13.6 µM | 18.7 µM | 16.7 µM | 8.73 µM | 20.3 µM | 19.5 µM | 14.5 µM |
| C[C@]12CC[C@H]3[C@@H](CC[C@]4(O)C[C@@H](O)CC[C@]34CO)[C@@]1(O)CC[C@@H]2C1=CC(=O)OC1 | 29.7 µM |  | > 100 µM | 6.47 µM | 13.8 µM | 6.72 µM | 23.6 µM |  | 12.7 µM | 10.5 µM |  |  |  |  |  |  |  |  |
| COc1ccccc1NC(=O)C1=C(C)NC(C)=C(C(=O)Nc2ccccc2OC)C1c1ccc(N(C)C)cc1 | 92.1 µM | 65.6 µM | > 100 µM | > 100 µM | 51.3 µM | 84.5 µM | > 100 µM | 81.1 µM | > 100 µM |  |  |  |  |  |  |  |  |  |
| COC(=O)C1Cc2c([nH]c3ccccc23)C(c2ccccc2O)N1Cc1ccccc1 (stereo not given) | > 46.4 µM | > 31.6 µM | 33.3 µM | > 31.6 µM | > 46.4 µM | 40.1 µM | > 31.6 µM | > 46.4 µM | > 46.4 µM |  |  |  |  |  |  |  |  |  |
| COc1c(Sc2ccccc2)cc(Sc2ccccc2)c2cccnc12 | 39 µM | 91.3 µM | > 100 µM | 44.1 µM |  | > 100 µM | > 100 µM | > 100 µM | 41.1 µM |  |  |  |  |  |  |  |  |  |
| NC(=O)c1csc(C2CCC(CO)O2)n1 (stereo not given) | > 100 µM | > 100 µM | > 100 µM | > 100 µM | > 100 µM | > 100 µM | > 100 µM | > 100 µM | > 100 µM |  |  |  |  |  |  |  |  |  |
| Clc1ccc2c(c1)[nH]c1c2nc2sccn21 | > 100 µM | > 100 µM | > 100 µM | > 100 µM | > 100 µM | > 100 µM | > 100 µM | > 100 µM | > 100 µM |  |  |  |  |  |  |  |  |  |
| O=C(CSc1nc(-c2ccccc2)c(-c2ccccc2)[nH]1)NNC(=S)Nc1ccccc1 | > 100 µM | > 100 µM | > 100 µM | > 100 µM | > 100 µM | > 100 µM | > 100 µM | > 100 µM | > 100 µM |  |  |  |  |  |  |  |  |  |
| N#Cc1c(C[n+]2ccccc2)c2ccccc2oc1=O | > 100 µM | > 100 µM | > 100 µM | > 100 µM | > 100 µM | > 100 µM | > 100 µM | > 100 µM | > 100 µM |  |  |  |  |  |  |  |  |  |
| COc1cc2c(c(OC)c1OC)-c1ccc(O)c(=O)cc1[C@@H](NC(C)=O)CC2 | > 100 µM and 35.4 µM |  | > 100 µM and 82.4 µM | 97.7 µM | 80 µM and 44 µM | > 100 µM | > 100 µM |  | 33.3 µM and 77.1 µM | > 100 µM | 4.1 µM | 4.76 µM | 19.2 µM | 10.5 µM | 15.1 µM | 11 µM | 7.14 µM | 4.34 µM |
| CN1C(=O)C2C=CC1C1CCC2N(C)C1=O (stereo not given) | > 100 µM | > 100 µM | > 100 µM | > 100 µM | > 100 µM | > 100 µM | > 100 µM | > 100 µM | > 100 µM |  |  |  |  |  |  |  |  |  |
